The NIST ThermoML archive (doi:10.1021/je060136y)
Several values for one entry are separate records, joined by “and”; a condition that tells them apart may be missing. Equal values may be shown once. Numbers after ± are expanded uncertainties.

Assay: activity coefficient (dimensionless); of the first substance listed, at infinite dilution; xn = mol fraction of the nth substance listed
Conditions: Liquid, x1 = 0
[1] = 333.15 K, Rayleigh distillation method
[2] = 343.15 K, Rayleigh distillation method
[3] = 353.15 K, Rayleigh distillation method

| Compound | activity coefficient [1] | activity coefficient [2] | activity coefficient [3] | activity coefficient (372.85 K, ciculation still method) | activity coefficient (298.15 K, headspace analysis) | activity coefficient (372.47 K, ciculation still method) | activity coefficient (313.15 K, headspace analysis) | activity coefficient (372.65 K, circulation still method) | activity coefficient (372.82 K, circulation still method) |
| --- | --- | --- | --- | --- | --- | --- | --- | --- | --- |
| O=[N+]([O-])c1ccccc1 [nitrobenzene] + O | 2450 and 2320 | 2150 ± 220 | 1640 and 1660 | 1320 ± 130 |  |  |  |  |  |
| Nc1ccccc1 [aniline] + O | 130 ± 13 | 121 and 119 | 111 ± 11 |  | 145 ± 15 | 92.7 ± 9.3 |  |  |  |
| NC1CCCCC1 [cyclohexylamine] + O | 36.7 ± 3.7 | 44.8 ± 4.5 | 51.2 ± 5.1 |  | 19 ± 2 |  | 29.1 ± 2.9 | 64.5 ± 6.5 | 53.5 and 64.6 |
